Test results published in article PMC6071317 (European journal of medicinal chemistry, 2017).

How the values were obtained:
[1] = biological target: human α1β3γ2 GABAA receptors (Homo sapiens, UniProt P14867+P28472); test: Modulation of [3H]muscimol binding to GABAA receptor membranes from HEK293 cells; conditions: 2 nM [3H]muscimol
[2] = Partition coefficient; type: physicochemical; conditions: difference to alphaxalone
[3] = system: GABAAR; conditions: read-out: Potentiation EC50; bulk phase concentration; cited from earlier work
[4] = biological target: purified human α1β3γ2 GABAA receptor (Homo sapiens, UniProt P14867+P28472); type: binding
Sequence of purified human α1β3γ2 GABAA receptor (P14867 28-456): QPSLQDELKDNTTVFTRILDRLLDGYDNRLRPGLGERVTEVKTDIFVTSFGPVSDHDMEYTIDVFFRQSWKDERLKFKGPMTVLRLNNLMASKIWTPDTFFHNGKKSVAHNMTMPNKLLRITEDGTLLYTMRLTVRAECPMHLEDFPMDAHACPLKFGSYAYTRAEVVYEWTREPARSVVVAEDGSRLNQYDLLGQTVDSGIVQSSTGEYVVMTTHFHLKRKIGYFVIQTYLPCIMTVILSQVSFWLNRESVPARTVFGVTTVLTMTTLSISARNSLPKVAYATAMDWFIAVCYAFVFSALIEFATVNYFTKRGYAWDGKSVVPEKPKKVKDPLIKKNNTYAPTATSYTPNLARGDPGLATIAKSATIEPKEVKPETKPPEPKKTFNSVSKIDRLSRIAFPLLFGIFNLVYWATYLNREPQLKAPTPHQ
Sequence of purified human α1β3γ2 GABAA receptor (P28472 26-473): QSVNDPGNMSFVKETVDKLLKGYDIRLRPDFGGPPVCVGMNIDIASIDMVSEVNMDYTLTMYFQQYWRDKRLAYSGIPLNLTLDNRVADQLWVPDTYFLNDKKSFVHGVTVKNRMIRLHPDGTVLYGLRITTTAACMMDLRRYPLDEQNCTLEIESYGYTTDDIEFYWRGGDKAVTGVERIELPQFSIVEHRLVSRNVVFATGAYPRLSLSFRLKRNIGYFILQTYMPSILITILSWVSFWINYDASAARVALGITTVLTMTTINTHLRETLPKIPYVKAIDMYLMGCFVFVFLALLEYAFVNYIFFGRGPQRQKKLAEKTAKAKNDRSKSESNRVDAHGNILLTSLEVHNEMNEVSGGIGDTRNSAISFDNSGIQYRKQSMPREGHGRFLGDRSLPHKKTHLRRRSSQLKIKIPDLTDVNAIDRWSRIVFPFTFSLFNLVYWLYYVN
Sequence of purified human α1β3γ2 GABAA receptor (P18507 40-475 partner): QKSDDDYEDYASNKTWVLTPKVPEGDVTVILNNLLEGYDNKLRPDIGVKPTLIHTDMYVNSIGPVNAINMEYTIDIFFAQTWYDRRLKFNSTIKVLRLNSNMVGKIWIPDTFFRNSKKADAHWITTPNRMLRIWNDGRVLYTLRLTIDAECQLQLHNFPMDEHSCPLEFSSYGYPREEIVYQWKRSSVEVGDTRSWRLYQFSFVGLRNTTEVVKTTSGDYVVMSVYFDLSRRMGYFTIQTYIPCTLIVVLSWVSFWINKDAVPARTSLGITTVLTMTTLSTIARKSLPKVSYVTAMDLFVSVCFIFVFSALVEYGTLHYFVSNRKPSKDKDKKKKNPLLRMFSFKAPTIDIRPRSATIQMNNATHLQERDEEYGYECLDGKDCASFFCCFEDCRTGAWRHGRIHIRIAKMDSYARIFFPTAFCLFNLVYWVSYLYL

[5] = biological target: purified α1β3γ2 GABAARs (Homo sapiens, UniProt P14867+P28472); type: binding; conditions: 3.5 μM [3H]azietomidate
Sequence of purified α1β3γ2 GABAARs (P14867 28-456): as the sequence (P14867 28-456) above
Sequence of purified α1β3γ2 GABAARs (P28472 26-473): as the sequence (P28472 26-473) above
Sequence of purified α1β3γ2 GABAARs (P18507 40-475 partner): as the sequence (P18507 40-475 partner) above

Sequence of human α1β3γ2 GABAA receptors (P14867 28-456): as the sequence (P14867 28-456) above
Sequence of human α1β3γ2 GABAA receptors (P28472 26-473): as the sequence (P28472 26-473) above
Sequence of human α1β3γ2 GABAA receptors (P18507 40-475 partner): as the sequence (P18507 40-475 partner) above

SMILES: CC(=O)[C@H]1CC[C@H]2[C@@H]3CC[C@H]4C[C@H](O)CC[C@]4(C)[C@H]3[C@@H](OC(=O)c3c(F)c(F)c(N=[N+]=[N-])c(F)c3F)C[C@]12C [F4N3Bzox-AP, 11β-(4-Azido-2,3,5,6-tetrafluorobenzoyloxy)-3α-hydroxy-5α-pregnane-20-one]
- Efficacy of modulation of [3H]muscimol binding [1]: 228 ± 4%
- Hill coefficient of enhancement of [3H]muscimol binding [1]: 1.9 ± 0.1
- Higher lipophilicity as compared to alphaxalone [2]: ca. 1.5 log P units

SMILES: CC(=O)[C@H]1CC[C@H]2[C@@H]3CC[C@H]4C[C@H](O)CC[C@]4(C)[C@H]3C(=O)C[C@]12C [alphaxalone, Alphaxalone]
- EC50 [3]: 600 nM

SMILES: CC(=O)[C@H]1CC[C@H]2[C@@H]3CC[C@H]4C[C@H](O)CC[C@]4(C)[C@H]3C3(C[C@]12C)N=N3 [11-aziAP, 11-Aziallopregnanolone]
- Efficacy of modulation of [3H]muscimol binding [1]: 227 ± 2%
- Hill coefficient of enhancement of [3H]muscimol binding [1]: 1.1 ± 0.2
- Enhancement of photolabeling by both probes ([3H]azietomidate, [3H]R-mTFD-MPAB) ([4]; 0.3 and 1 μM): to the same extent as GABA or alphaxalone

SMILES: CC(c1ccccc1)n1cncc1C(=O)OCCC1(C)N=N1 (stereo not drawn) [[^3H]azietomidate, reference compound]
- α-subunits photolabeled [5]: 10%
- Pharmacologically specific subunit photolabeling (inhibitable by etomidate) ([4]; [3H]azietomidate subunit photolabeling): 80%
